“And” between values parts separate entries of the source, which are not always exact repeats. Identical values can stand only once.
How the values were obtained:
[1] = system: TNBS-Induced Chronic Colonic Allodynia; experiment: TNBS-induced chronic colonic allodynia in rats (colonic distension threshold); type: in vivo, Male Sprague-Dawley rats; settings: rat, in vivo
Procedure: GABA analogs were evaluated in rats suffering from chronic visceral allodynia induced by trinitrobenzene sulfonic acid (TNBS).
In humans, digestive disorders are often associated with visceral pain. In these pathologies, the visceral pain threshold is decreased, indicating a visceral hypersensitivity. Consequently, the following study was designed to evaluate the effect of injection of TNBS into the colon on visceral pain threshold in an experimental model of colonic distension.
(§1) Male Sprague-Dawley rats weighing 340 to 400 g were used in the study. The animals were housed three per cage in a regulated environment (20 ± 1°C, 50 ± 5% humidity, with light 8:00 AM to 8:00 PM). Under anethesia (ketamine 80 mg/kg i.p.; acepromazin 12 mg/kg i.p.), TNBS (50 mg/kg), or saline (1.5 mL/kg) was injected into the proximal colon (1 cm from the cecum). After the surgery, animals were individually housed in the regulated environment.
(§2) A balloon catheter (5-6 cm length) was inserted through the anus into the colon and kept in position (tip of balloon 5 cm from the anus) by taping the catheter to the base of the tail. The balloon was progressively inflated by step of 5 mm Hg, from 0 to 75 mm Hg, each step of inflation lasting 30 seconds. Each cycle of colonic distension was controlled by a standard barostat. The threshold corresponds to the pressure which produced the first abdominal contraction, at which time the cycle of distension was discontinued. To determine the colonic threshold, four cycles of distension were performed on the same animal.
In a second series, a group of eight rats treated with TNBS were subjected to a colonic distension session.
In a third series, a group of eight rats treated with TNBS received a subcutaneous (sc) injection of gabapentin or CI-1008 30 minutes prior to initiation of the colonic distension cycle.
(§3) All test compounds were dissolved in saline except TNBS. TNBS was dissolved in EtOH 30% (w/v). Subcutaneous injection of vehicle was given in a volume of […].
(§4) Statistical significance between each group was determined using a one-way ANOVA followed by Student's unpaired t-test. Differences were considered statistically significant at p <0.05.
Pain threshold (pressure of distension inducing the first abdominal contraction) after distal colonic distension was determined at Day 7 in two groups of awake rats: control animals and TNBS-treated animals. […] Inflammatory parameters (colon weight, area of hyperemia and necrosis and colonic myeloperoxidase content) were measured in the proximal colon at Day 7 after TNBS treatment.
Gabapentin (100, 300, and 500 mg/kg sc) and CI-1008 (30, 60, 100, and 200 mg/kg sc) were administered 30 minutes before colonic distension and measurement of the inflammatory parameters.

[2] = system: Colonic Threshold in Normal Rats; experiment: Colonic distension pain threshold in normal rats; type: in vivo, Male Sprague-Dawley rats; settings: rat, in vivo
Procedure: as §1, §2
In a first series of experiments, a group of eight rats treated with saline were subjected to a colonic distension session.
as §3, §4

CN1CC[C@]23c4c5ccc(O)c4O[C@H]2[C@@H](O)C=C[C@H]3[C@H]1C5 [Morphine]
Colonic Threshold [1]: 34.22 mm Hg and 46.09 mm Hg and 64.84 mm Hg
TNBS-induced decrease in pain threshold after colonic distension (in words) [1]: completely suppressed
colonic pain threshold in normal conditions (control animals), in words [2]: significantly increased
